In publication PMC8875392, “Design and Characterization of Myristoylated and Non-Myristoylated Peptides Effective against Candida spp. Clinical Isolates” (International Journal of Molecular Sciences, 2022):
Where no end group is shown, it is not given here.

Key:
[1] = system: C. albicans clinical isolates; assay type: cell-based, Candida albicans; conditions: 16 h
Description: (§1) The antifungal activity of AMPs was determined against 50 clinical isolates, 10 for each of the following Candida species: C. albicans, C. tropicalis, C. glabrata, C. parapsilosis, and C. auris. The latter were derived from patients with positive blood cultures in four hospitals in India, with known resistance profiles to fluconazole, voriconazole, and echinocandins. Yeast cells were grown in Brain Heart Infusion (BHI) medium (Sigma-Aldrich, Gillingham, UK) for 16 h at 37 °C in a 150-rpm orbital shaker. Cells were then sub-inoculated in a fresh BHI medium and grown to an optical density (OD) of 0.3. The turbidity of the inoculum was adjusted to 0.5 McFarland and diluted 1:500 in RPMI 1640 broth, corresponding to around […].
(§2) Minimal inhibitory concentrations (MICs) were determined by Broth microdilution susceptibility tests, according to The Clinical and Laboratory Standards Institute (CLSI) international guidelines. A fungal suspension of 0.5 MacFarland was diluted 1:500 in RPMI 1640 broth and incubated in 96 multi-well plates containing AMPs at different concentrations ranging from 0.125 to 256 μg/mL. In this range of concentration, lipopeptides were completely soluble. […] The MIC90 represents the value at which ≥90% of the strains within a test population were inhibited.

[2] = system: C. glabrata clinical isolates; assay type: cell-based, Candida glabrata; conditions: 16 h
Description: as §1, §2

[3] = system: C. parapsilosis clinical isolates; assay type: cell-based, Candida parapsilosis; conditions: clinical isolates, 16 h
Description: as §1, §2

[4] = system: C. tropicalis clinical isolates; assay type: cell-based, Candida tropicalis; conditions: clinical isolates, 16 h
Description: as §1, §2

[5] = system: C. auris clinical isolates; assay type: cell-based, Candida auris; conditions: clinical isolates, 16 h
Description: as §1, §2

rabbit erythrocytes = conditions: 5 µM
Description: The hemolytic assay was performed on rabbit erythrocytes (Rockland) maintained in Alsever’s solution (Innovative Research). Briefly, after the removal of Alsever’s solution, the erythrocytes were resuspended in PBS and counted in a hemocytometer. A suspension of 5,000,000 red blood cells was incubated with four dilutions (from 5 µm to 50 µm) of the six peptides in a 96-well microplate. As a negative control, erythrocytes were incubated without the peptides, while as a positive control, erythrocyte was added with triton 10% v/v. The plate was incubated at 37 °C for 2 h and subsequently centrifuged at 1200 rpm × 3 min to separate the pellet from the supernatant. The absorbance of the supernatant was measured at 492 nm. Each point was made in triplicate. The relative OD compared to the positive control defined the percentage of hemolysis [71]. Statistical analysis was performed using two-way ANOVA analysis followed by Bonferroni’s post-test.

[6] = system: Galleria mellonella larvae; test: In vivo peptide toxicity in Galleria mellonella model; conditions: uninfected larvae, groups of ten, peptide 640 µg/mL, single injection, 30 °C
Description: Multidrug-resistant C. auris was chosen as a representative species for in vivo studies. […] Groups of ten G. mellonella larvae were infected with C. auris and treated with the Pep-B and Myr-B peptides at a concentration of 640 µg/mL (about 400 µM).
Ten larvae (250–320 mg each) were selected at random for each step in the procedure. Any larvae with darkening of the cuticle were discarded. The test compounds and yeast were injected into the hemocoel in water buffer through the last left proleg (Insumed 30G Pic, Italy, syringe volume 0.5 mL, needle size 30G). The larvae were incubated in the dark for 3 days, and mortality was recorded daily.
For the peptide efficacy experiment, ten larvae were injected into the last left proleg with a pre-determined infective dose of yeast and the dose of peptides at the same time in a final volume of 10 μL and incubated at 30 °C. Each step in the procedure included six groups of 10 larvae: C. auris-infected larvae (10^7 CFU), infected and treated larvae with peptide B (640 μg/mL), infected and treated larvae with peptide Myr-B (640 μg/mL), treated larvae with peptide B (640 μg/mL), treated larvae with peptide Myr-B (640 μg/mL), and vehicle-injected control (water). The mortality was recorded daily for 3 days.

Row | Sequence | MIC [1] | MIC90 [1] | MIC [2] | MIC90 [2] | MIC [3] | MIC90 [3] | MIC90 [4] | MIC90 [5] | hemolysis (rabbit erythrocytes) | Peptide toxicity, DAY 1 Dead [6] | Peptide toxicity, DAY 2 Dead [6] | Peptide toxicity, DAY 3 Dead [6]
1 | WFGKLYRGITK [Pep-A] | > 256 µg/mL | >256 µg/mL | > 256 µg/mL | >256 µg/mL | > 256 µg/mL | >256 µg/mL | >256 µg/mL | >256 µg/mL | 0.1% | – | – | –
2 | WRGITKVVKKV [Pep-B] | > 256 µg/mL | >256 µg/mL | > 256 µg/mL | >256 µg/mL | > 256 µg/mL | >256 µg/mL | >256 µg/mL | >256 µg/mL | – | 3 | 5 | 9
3 | WVVKKVKGLLK [Pep-C] | > 256 µg/mL | >256 µg/mL | > 256 µg/mL | >256 µg/mL | > 256 µg/mL | >256 µg/mL | >256 µg/mL | >256 µg/mL | – | – | – | –
